According to patent US20030134851A1, “Methods and compositions for providing glutamine” (priority 2001, published 2003):
“Also recorded” adds a separate entry of the source.

System: intestinal damage caused by protein-energy malnutrition
Test: Intestinal damage caused by protein-energy malnutrition in pigs
Assay type: in vivo, pig
Details: for Ileal mucosa histology (electron transmission microscopy) / Jejunal mucosa histology (electron transmission microscopy): malnourished pigs fed ENSURE PLUS plus supplement; for Alkaline phosphatase (AP) activity in jejunum: versus caseinate supplement; for T helper (CD4+) subpopulation of intra-epithelial lymphocytes in jejunum: versus control group
Protocol: A study was conducted to evaluate the potential effects of N-acetyl-L-glutamine versus free glutamine on intestinal damage caused by protein-energy malnutrition in pigs. In this study, 5-week-old domestic pigs, were provided by a certified farm. The pigs were randomly assigned to one of two groups. In one group 3 pigs were freely fed with ENSURE PLUS® (Ross Products Division, Abbott Laboratories) for 30 days. In the second group, 9 pigs were also fed with ENSURE PLUS®, but at only 20% of the daily intake of the first group. This second group was divided into 3 subgroups with […] each to receive a daily supplement of either calcium caseinate, glutamine or N-acetyl-L-glutamine. Daily average energy and protein supplied to the control group ranged from 3300 kcal, 138 g protein at the beginning of the study to 4500 kcal, 187 g protein at the end of the study. In the second group, supplements of caseinate, glutamine and N-acetyl-L-glutamine provided an additional 1.32 grams nitrogen equivalents per day (basically, 6.89 grams L-glutamine, or 8.87 grams N-acetyl-L-glutamine or 8.42 grams caseinate protein are supplemented per day). After 30 days, all pigs were deprived of food for 16 hours. The animals were then weighed, sedated, anesthetized and sacrificed through terminal bleeding by jugular puncture.
The entire small intestine was quickly removed. The 60 cm segment of the small intestine from the ligament of Treitz was considered proximal jejunum. A 5 cm long segment from the ligament of Treitz was selected for histological analysis of jejunum. The 60 cm length closest to the ileo-cecal valve was considered the distal ileum. A 5 cm segment from the ileo-cecal valve was selected for histological analysis of the ileum. The intestine segments were rinsed thoroughly with ice-cold saline solution, opened length-wise and blotted dry. The mucosa was scraped off using a glass slide onto a cold Petri dish, weighed, immediately frozen under liquid nitrogen and stored at −80° C. until biochemical analysis.
Jejunal and ileal mucosa were homogenized in 10 mM phosphate buffer (pH 7.4) using a mechanical Potter homogenizer, for protein and DNA assays. For the determination of the enzymatic markers of injury, functionality and antioxidant defense system, the mucosal homogenates were centrifuged at 3000 g for 10 min. and the resulting supernatants were used for enzymatic assays. For the determination of total glutathione, the mucosa was homogenized in 5% trichloroacetic acid and centrifuged at 8000 g for 5 min.
Biochemical analysis and immunological analysis were performed on the specimens. Concentrations of intestinal mucosa protein and DNA were determined using the Bradford method (Analytical Biochemistry, Volume 72, pages 248-254, 1976) and the method of Labarca and Paigen (Analytical Biochemistry, Volume 102 (2), pages 344-352, 1980), respectively. The degree of intestinal damage caused by malnutrition was evaluated by measuring alkaline phosphatase activity using the method of Goldstein (R. Goldstein, T. Klein, S. Freier and J. Menczel. American Journal of Clinical Nutrition 24: 1224-1231, 1970).
Glutathione reductase activity was evaluated by the method of Carlberg and Mannervik (I. Carlberg and B. Mannervik, Methods in Enzymology, Volume 113, pp 484-490, 1985). Glutathione transferase activity was measured using the method of Habig, et al. (W. H. Habig, M. J. Pabst and W. B. Jakoby, Journal of Biological Chemistry. […]). Glutathione peroxidase activity was assayed by the method of Flohe and Gunzler (L. Flohe and W. A. Gunzler, Methods in Enzymology, Volume 105, pp 114-121, 1984), and the non-protein sulfhydryl content (reported as reduced glutathione equivalents) was determined by the method of Anderson (M. E. Anderson, Methods in Enzymology, 133: 548-554, 1985). […]

SMILES | Ileal mucosa histology (electron transmission microscopy) (30 days) | Jejunal mucosa histology (electron transmission microscopy) (30 days) | Prevention of biochemical and immunological changes induced by malnutrition in the small intestine (malnourished pigs, 30 days) | Alkaline phosphatase (AP) activity in jejunum (malnourished pigs, 30 days) | Total number of peyer's patch lymphocytes in ileum (malnourished pigs, versus N-acetyl-glutamine-supplemented or control groups) | T helper (CD4+) subpopulation of intra-epithelial lymphocytes in jejunum (malnourished pigs) | Prevention of overt signs of inflammation in the epithelial lining of the gastrointestinal tract (electron transmission micrographs, malnourished pigs) | Glutathione transferase activity in small intestine (malnourished pigs, 30 days) | Number of CD1+ intra-epithelial lymphocytes in jejunum (malnourished pigs, 30 days) | Intestinal contents of protein (jejunum and ileum) and DNA (ileum) (malnourished pigs, 30 days, versus caseinate or glutamine supplement) | Amount of GSH in the intestinal mucosa (malnourished pigs, 30 days, versus caseinate or glutamine, did not reach significance) | Total number of peyer's patch lymphocytes in jejunum (malnourished pigs, versus caseinate- or glutamine-supplemented groups)
NC(=O)CC[C@H](N)C(=O)O [Glutamine, glutamine] | displayed loss of microvilli, wide intercellular spaces, and intense lymphocytes infiltration | displayed shortened microvilli, expanded intercellular spaces, and irregular lobulated nucleus | no clear effect | tended to have higher AP activity | significantly lower | significantly higher | – | – | – | – | – | –
CC(=O)N[C@@H](CCC(N)=O)C(=O)O [N-acetyl-L-glutamine] | less affected by protein-energy malnutrition | less affected by protein-energy malnutrition | performed better than the glutamine or caseinate supplemented groups; also recorded: positive effect | tended to have higher AP activity | – | significantly higher | more effective than glutamine | less affected by the malnutrition process | significantly higher than in the rest of the groups | tended to be higher | tended to be slightly higher | tendency of the total number of peyer's patch lymphocytes to be higher
